In brackets after ≈: the same amount, converted by molar mass.
Assays:
[1] = Solubility of amphotericin B in 23 wt % triblock copolymer solution; type: physicochemical
Experimental: Triblock copolymer of Example 2 (entry number 1) was used. The drug was mixed with the copolymer solution (23 wt % copolymer in water). The mixture was allowed to stand for 30 minutes before filtration.

[2] = cited from earlier work
[3] = Behaviour of the polymer solution in aqueous liquid at 35-42° C.; type: physicochemical; settings: copolymer with drug; between at least 35-42° C.
Experimental: PEG (Mw=1450; 476.2 g) was dried under vacuum (1 mmHg) at 130° C. for 5 hours. D,L-Lactide (412.9 grams) and glycolide (110.9 grams) were added to the flask and heated to 145° C. to afford a homogenous solution. Polymerization was initiated by the addition of 250 mg stannous octoate to the reaction mixture. After maintaining the reaction for five hours at 145° C., the reaction was stopped and the flask was cooled to room temperature. Unreacted lactide and glycolide were removed by vacuum distillation. […] The copolymer was purified twice by dissolving in water to afford a 25% solution, and letting the solution stir overnight at room temperature followed by elevating the solution temperature to 70° C. to precipitate the polymer. Excess water was removed by freeze drying. […] The GPC was performed on two Phenogel columns (300×7.8), 500 Å, and a mixed bed, connected in series. Mobile phase was tetrahydrofuran. Calibration was with PEG standards. Detection was by refractive index.

[4] = physchem
Experimental: Triblock copolymers of Example 2 were used. The neat polymer and the drug were mixed and gently heated (ca. 50° C.) to completely dissolve the drug. Water was added to the mixture to afford a 23% by weight aqueous solution of the triblock copolymers. The solution was allowed to stand for 30 minutes before filtration (0.2 μm pore size filter).

[5] = physchem; remark: listed apart in the source
Experimental: Polymer solutions containing 23% by weight of the copolymer were prepared in water, and paclitaxel was added to the solution and the mixture was stirred for approximately 20 minutes.

Row | SMILES | solubility in the aqueous triblock copolymer solution ([1]; 23 wt % copolymer of Example 2 entry number 1 in water, 30 minutes, filtered) | increase of solubility ([1]; copolymer solution versus pure water) | reported solubility in pure water [2] | state of polymer solution containing drug when mixed with an aqueous liquid [3] | solubility at 30 min ([4]; 25 °C, aqueous with cosolvent or surfactant or cyclodextrin, Drug Solubility) | Drug Solubility ([4]; 30 min) | solubility ([4]; water, water solubility) | increase of solubility [5] | solubility ([5]; aqueous with cosolvent or surfactant or cyclodextrin, thermodynamic from solid) | solubility ([5]; water)
1 | C[C@@H]1[C@H](O)[C@@H](C)/C=C/C=C/C=C/C=C/C=C/C=C/C=C/[C@H](O[C@@H]2O[C@H](C)[C@@H](O)[C@H](N)[C@@H]2O)C[C@@H]2O[C@](O)(C[C@@H](O)C[C@@H](O)[C@H](O)CC[C@@H](O)C[C@@H](O)CC(=O)O[C@H]1C)C[C@H](O)[C@H]2C(=O)O [amphotericin B] | 150 µg/mL (≈ 162 µM) | 50 fold | 3 µg/mL | remained as a free flowing liquid | – | – | – | – | – | –
2 | COC1=CC(=O)C[C@@H](C)[C@]12Oc1c(Cl)c(OC)cc(OC)c1C2=O [griseofulvin] | – | – | – | remained as free flowing liquids | 1500 µg/mL (≈ 4250 µM) | 1570 µg/mL | 10 µg/mL (≈ 28.3 µM) | – | – | –
3 | CC(=O)O[C@H]1C(=O)[C@@]2(C)[C@H]([C@H](OC(=O)c3ccccc3)[C@]3(O)C[C@H](OC(=O)[C@H](O)[C@@H](NC(=O)c4ccccc4)c4ccccc4)C(C)=C1C3(C)C)[C@]1(OC(C)=O)CO[C@@H]1C[C@@H]2O [paclitaxel] | – | – | – | remained as a free flowing liquid | – | – | – | at least 5000 fold | > 25000 µg/mL | ~5 µg/mL (≈ 5.86 µM)

— patent US20020192286A1, “Biodegradable triblock copolymers as solubilizing agents for drugs and method of use thereof” (Macromed, Incorporated, priority 2001, published 2002)
